Here are results for 3 molecules from US10072161B2, “Polyamide nanoparticles and uses thereof” (Bar-Ilan University, priority 2014, dated 2018).

Data set [1] relates to E. coli. Description: Bacterial killing kinetics in the presence of antioxidants. It is filed as cell-based, Escherichia coli. The conditions noted are these: 10 mM antioxidant, 1 h pre-incubation. Here is the method:
(§1) Cultures of E. coli and S. aureus bacteria grown overnight were diluted in fresh twofold concentrated LB medium to obtain stock solutions with a final working concentration of 10^5 CFU/ml. […] Bacteria supplemented with distilled water or the various antioxidants served as negative controls. At various time points, 100 μl samples were taken from each tube and transferred into the first row wells of a 96-well plate containing 20 μl of 0.1 N thiosulfate. The latter was added to quench the remaining chlorine on the P(MAA-MBAA)-Cl NPs and NaOCl, thus terminating the sterilization process. Serial dilutions were carried out and the cells spotted onto LB agar plates, which were incubated at 37° C. for 20 h. Cell growth was monitored and determined by a viable cell count.

For data set [2], the system named is S. aureus. The data set is described as above. The format is cell-based, Staphylococcus aureus. The conditions noted are these: 10 mM antioxidant, 1 h pre-incubation. Here is the method:
as §1

Data set [3] in a line: ESR spin trapping (DMPO) of ROS. The conditions noted are these: 10 mM antioxidant.
Method: ROS production was detected using the ESR spin trapping technique coupled with a spin trap 5,5-Dimethyl-pyrroline N-oxide (DMPO, Sigma, St. Louis, Mo.). Typically, the aqueous suspensions of NPs were added to DMPO (0.01 M), in the presence of equivalent volumes of either twofold concentrated LB medium, or each of its components (Tryptone, yeast extract, NaCl) or water. […] The solution was drawn into a 0.8 mm ID capillary quartz tube sealed at both ends with a plastic Critoseal (Thermo Fisher Scientific Inc), which was placed into a quartz tube that in turn was placed into the EPR rectangular cavity (ER 4122SHQ). The measurements were taken using a X-band Elexsys E500 EPR spectrometer (Bruker, Karlsruhe, Germany) using the following parameters: microwave power, 20 mW; scan width, 100 G; resolution, 1024; Gain, 60; sweep time, 60 s; # scans, 2; modulation frequency, 100 kHz; modulation amplitude, 1 G. In order to compare the radical intensity, the double integration (DI) of the spin adduct signal was calculated, using the Xepr 2.6b.58 acquisition version.
The test system of data set [4] is Escherichia coli (E. coli) C600. The data set can be described thus: Minimum inhibitory concentration (MIC) assay in LB, 96-well, OD595. The conditions noted are these: 10^5 CFU/mL. The format is cell-based. Here is the method:
(§2) In exemplary procedures, Escherichia coli (E. coli) C600, Staphylococcus aureus (S. aureus) FRF1169, and multi-drug resistant strains E. coli 5327752, Klebsiella pneumoniae 5363271, and Providencia stuartii 5327311 were grown overnight at 37° C. under agitation (250 rpm) in Luria Bertani (LB, Difco) growth medium.
(§3) In exemplary procedures, the antimicrobial activity of the P(MAA-MBAA)-Cl nanoparticles was evaluated by determining the minimum inhibitory concentration (MIC) values for both E. coli and S. aureus. The MIC was defined as the lowest Cl concentration bound to the nanoparticles, or the NaOCl, at which no bacterial growth was visible following incubation with the respective bacteria. The stock solution of the P(MAA-MBAA)-Cl nanoparticles and NaOCl were each diluted in two-fold serial dilutions in a 96-well plate (Griener Bio-one) ranging from bound Cl concentrations of 10 to 0.08 mM (approximately corresponding to 0.8% P(MAA-MBAA)-Cl, w/v) in LB medium in a 96-well plate (Greiner Bio-one). Each well contained 10^5 colony-forming units (CFU)/mL of either E. coli or S. aureus, and bacteria were either treated with P(MAA-MBAA) nanoparticles or left untreated to serve as negative controls. The bacterial growth was monitored via absorbance measurements at OD595 utilizing a microplate reader (Synergy 2, BioTek instruments). All experiments were conducted in triplicate.

The test system of data set [5] is Staphylococcus aureus (S. aureus) FRF1169. The data set is described as above. The conditions noted are these: 10^5 CFU/mL. The format is cell-based. As to the method:
as §2, §3

For data set [6], the system named is E. coli. Description: Bacterial killing / killing kinetics, viable cell count (CFU/mL). It is filed as cell-based, Escherichia coli. As to the method:
as §2
(§4) In exemplary procedures, overnight cultures of E. coli and S. aureus bacteria were each diluted in a fresh LB medium to obtain stock solutions with a working concentration of 10^5 CFU per mL. Next, E. coli and S. aureus bacteria were grown, […] with equivalent volumes of either NaOCl, P(MAA-MBAA) or P(MAA-MBAA)-Cl nanoparticles (0.2%, 0.75%, and 1% w/v) under continuous agitation (250 rpm). At various time points, 100 μL samples were taken from each tube and transferred into the wells of the first row in a 96-well plate that contained 20 μL of 0.1 N sodium thiosulfate. The latter was added to quench the remaining Cl on the P(MAA-MBAA)-Cl nanoparticles, thus halting the reaction. Serial dilutions were carried out, and the cells were spotted onto LB agar plates, followed by incubation at 37° C. for 20 hours. Cell growth was monitored and determined by viable cell count and expressed as CFU/mL.
(§5) Cultures of E. coli and S. aureus bacteria grown overnight were diluted in fresh twofold concentrated LB medium to obtain stock solutions with a final working concentration of 10^5 CFU/ml. Then, E. coli and S. aureus bacteria were grown with either P(MAA-MBAA)-Cl NPs or NaOCl under continuous agitation (250 rpm). Bacteria grown with distilled water or P(MAA-MBAA) NPs served as negative controls. At various time points, 100 μl samples were taken from each tube and transferred into the first row wells of a 96-well plate containing 20 μl of 0.1 N thiosulfate. The latter was added to quench the remaining chlorine on the P(MAA-MBAA)-Cl NPs and NaOCl, thus terminating the sterilization process. […] Cell growth was monitored and determined by a viable cell count.

Data set [7] relates to S. aureus. The description is as above. It is filed as cell-based, Staphylococcus aureus. As to the method:
as §2, §4, §5

For data set [8], the system named is E. coli. Description: Consecutive bacterial loading cycles (hourly, 8 cycles). The format is cell-based, Escherichia coli. Here is the method: (§6) The cell density of E. coli and S. aureus grown overnight was normalized to 2*10^5 cells per milliliter in a twofold concentrated LB medium; then the bacteria were treated for 1 h at 37° C. under agitation (250 rpm) with equivalent volumes of either NaOCl or P(MAA-MBAA)-Cl NPs. Bacteria shaken with water served as a negative control. After 1 h of incubation, aliquots were collected and diluted serially tenfold before spotting onto LB agar plates. After an overnight incubation at 37° C. the colony forming units (CFU) were counted and used to determine cell survival. Immediately after each aliquot was removed, newly prepared bacteria were added for another hour to each of the tubes to achieve a final concentration of 10^5 CFU/ml.

Data set [9] relates to S. aureus. The data set is described as above. It is filed as cell-based, Staphylococcus aureus. Here is the method: as §6
Data set [10] concerns E. coli. The data set can be described thus: Stability in organic rich media (LB pre-incubation, then bacterial loading). The format is cell-based, Escherichia coli. As to the method: (§7) 1 ml of either DDW, NaOCl or P(MAA-MBAA)-Cl NPs was mixed with 1 ml of twofold concentrated LB medium and incubated for 3 h, 5 h or 24 h. Then, E. coli or S. aureus were added to each of the solutions, reaching a final concentration of 10^5 CFU/ml and the mixture agitated for either 3 h or 24 h. At the indicated time points, samples were taken for cell viability determination and the solutions were reloaded with freshly prepared bacteria. The experiment was continued until the reagents were no longer capable of evincing toxic effects on the tested bacteria.

Data set [11] concerns S. aureus. The data set is described as above. The format is cell-based, Staphylococcus aureus. As to the method: as §7
Data set [12] in a line: Kinetics of oxidative chlorine release in LB medium (NaI quenching, 292/350 nm). The conditions noted are these: for % chlorinated: 1 day in LB. The format is physicochemical. Here is the method: Equal volumes of NaOCl or P(MAA-MBAA)-Cl NPs were incubated with equivalent volumes of twofold concentrated LB medium. The precise concentration of the oxidative chlorine found on the two reagents was determined at different time intervals via quenching with sodium iodide followed by spectrophotometer (Amersham Bioschiences) measurements at wavelengths of 292 nm and 350 nm, as previously described.
Equal volumes of NaOCl or P(MAA-MBAA)-Cl NPs were incubated with equivalent volumes of twofold concentrated LB medium. The precise concentration of the oxidative chlorine found on the two reagents was determined at different time intervals via quenching with sodium iodide followed by spectrophotometer (Amersham Bioschiences) measurements at wavelengths of 292 nm and 350 nm.

Where [13] appears, read: 10^5 CFU/ml in LB, NPs versus NaOCl.
Where [14] appears, read: pre-incubated for 1 week with LB.

Structures are written as SMILES.

In the case of `O=C1O[C@H]([C@@H](O)CO)C(O)=C1O` [AA, Ascorbic acid], the “effect of antioxidant pre-incubation on killing by the chlorinated NPs” value in the data set on E. coli [1] and with S. aureus [2] was “abolished the killing properties of the NPs” throughout.
Regarding `CC(=O)N[C@@H](CS)C(=O)O` [NAC, N-acetyl cysteine], in data set [3], the “effect on formation of DMPO-OH by P(MAA-MBAA)-Cl NPs with LB” value is given as “completely abrogated”. Besides, the “effect of antioxidant pre-incubation on killing by the chlorinated NPs” value in the data set with E. coli [1] and in the data set on S. aureus [2] was “abolished the killing properties of the NPs” each time.
For `OCl` [NaOCl, sodium hypochlorite], the “minimum inhibitory concentration (MIC)” value in [4] and in data set [5] was 5.6 mM oxidative Cl each time. Also, the bacterial killing entry in the data set on E. coli [6] (8 mM oxidative chlorine), with E. coli [6] (11 mM oxidative chlorine), in the data set on S. aureus [7] (8 mM oxidative chlorine) and in the data set with S. aureus [7] (11 mM oxidative chlorine) was “Total kill” each time. For the same molecule, the “time to eradication of bacteria” value in the data set on E. coli [6] (setting [13]) and in the data set with S. aureus [7] (setting [13]) was not above 2 min in each case. In addition, the “bacterial viability after overnight incubation following the eighth loading cycle” value was “no viable E. coli bacteria” with E. coli [8] and “able to overcome the growth inhibitory affect” in the data set on S. aureus [9]. In addition, the “loading cycle from which no longer able to promote bacterial killing” value in the data set with E. coli [8] amounted to 4 cycle; in the data set on S. aureus [9], 2 cycle. Besides, the “effect of pre-incubation with LB on bactericidal activity” value is listed as “had no impact on their bactericidal activity” in the data set with E. coli [10] (3 h pre-incubation); “growth inhibition” in the data set on E. coli [10] (5 h pre-incubation); “destroyed its antibacterial activity” in the data set on E. coli [10] (24 h pre-incubation); “did compromise its bactericidal activity” with S. aureus [11] (3 h pre-incubation); “growth arrest” in the data set on S. aureus [11] (5 h pre-incubation); “destroyed its antibacterial activity” in the data set on S. aureus [11] (24 h pre-incubation). For the same molecule, the “time to complete killing” value in the data set with E. coli [10] (5 h pre-incubation with LB) and with S. aureus [11] (3 h pre-incubation with LB) was 24 h throughout. The “reduction of bacteria viability” value in the data set with E. coli [10] (5 h pre-incubation with LB, 3 h time point) is on record as approximately 4 logs. Also, the “concentration required to kill bacteria” value with E. coli [10] (setting [14]) and in the data set on S. aureus [11] (setting [14]) was 0.36 M in each case. Moreover, the “killing at 0.18 M” value with E. coli [10] (setting [14]) and with S. aureus [11] (setting [14]) was “ineffective” throughout. Moreover, the “NaOCl molecules sequestered by organic substances” value in [12] (10 minutes of incubation in LB) is approximately 50%. In addition, the “% chlorinated” value worked out at 0.9% in data set [12] (measured at 292 nm) and 0.5% in data set [12] (measured at 350 nm).
